# Measured values taken from US9175282B2, “Cellobiose 2-epimerase, its preparation and uses” (HAYASHIBARA CO., LTD., priority 2009, dated 2015).
# Entries after “also recorded” stand apart in the source; their conditions may differ. Read-outs that look alike come from different tables or passages of the source.
# Columns and labels:
# cellobiose 2-epimerase = test: Effect of metal ions on the epimerase activity; format: biochemical, Caldicellusiruptor saccharolyticus ATCC43494; settings: for Inhibition of the epimerase activity by metal ion: 1 mM
# [1] = test system: recombinant cellobiose 2-epimerase; test: Formation of isomerized saccharides from various saccharides, effect of the amount of enzyme; format: biochemical, Caldicellulosiruptor saccharolyticus ATCC43494; settings: 10% (w/v) substrate, pH 6.0, 60° C., 72 hours
# Method: (§1) Each of them was dissolved into 20 mM acetate buffer (pH 6.0), admixed with the purified preparation of the recombinant cellobiose 2-epimerase, obtained by the method in Experiment 4-4, and followed the enzyme reaction under the conditions of 10% (w/v) substrate concentration, 60° C. for 72 hours. The amount of enzyme was set to 130 or 500 units/g-substrate when monosaccharide was used as the substrate, and to 1 or 130 units/g-substrate when disaccharide or trisaccharide was used as the substrate. Each reaction mixture was heated at 100° C. for 10 minutes to stop the reaction and subjected to HPLC analysis to determine the contents of isomerized saccharide, on a dry solid basis. The contents of epilactose and lactulose in the reaction mixture obtained using lactose as substrate were determined by GC analysis described in Experiment 1-2.
# [2] = test system: recombinant cellobiose 2-epimerase; test: Substrate specificity of cellobiose 2-epimerase by TLC; format: biochemical, Caldicellulosiruptor saccharolyticus ATCC43494; parameters: key to Action: −: No product is detected; ±: Some products are slightly detected; +: Some products are detected; ++: Some products are clearly detected; settings: for Action: 2% (w/w) substrate, MOPS buffer pH 8.0, 500 units/g-substrate, 60° C., 24 hours, product spot on TLC; for Action of the enzyme on the saccharide: summary of Table 3
# Method: Substrate specificity of the enzyme was investigated by allowing the purified preparation of the recombinant cellobiose 2-epimerase, obtained by the method of Experiment 4-4, to act on various saccharides. Substrate solutions were prepared by dissolving D-glucose, D-xylose, D-allose, D-ribose, D-galactose, D-fructose, D-mannose, D-psicose, D-tagatose, L-sorbose, L-rhamnose, L-ribose, trehalose, kojibiose, nigerose, isomaltose, neotrehalose, gentiobiose, lactose, sucrose, maltulose, palatinose, maltose, maltotriose, maltotetraose, maltopentaose, maltohexaose, maltoheptaose, cellobiose, cellotriose, cellotetraose, selaginose, isomaltosyl-glucoside, isomaltotriose, panose, isopanose, erlose, maltitol, maltotriitol, methyl-α-glucoside, methyl-β-glucoside, D-glucosamine, D-galactosamine, D-glucuronic acid, N-acetyl-glucosamine, or N-acetyl-galactosamine into MOPS buffer (pH 8.0) to give a final concentration of 2% (w/w) of saccharide and 40 mM buffer.
# Then, each of the resulting substrate solutions was further admixed with 500 units/g-substrate, on a dry solid basis, of the purified preparation of recombinant cellobiose 2-epimerase, obtained by the method in Experiment 4-4, and followed by the enzyme reaction at 60° C. for 24 hours. After stopping the reaction by heating the reaction mixture at 100° C. for 10 minutes, each reaction mixture was subjected to TLC analysis under the conditions in Experiment 1-2 to examine the saccharides in each mixture before and after the reaction. The substrate specificity of the enzyme was judged by investigating whether the spot of the reaction product except for the substrate is detected in the TLC chromatogram or not, and the degree of the strength of the visualized spot.
# [3] = test system: recombinant cellobiose 2-epimerase; test: Isomerized saccharides formed from monosaccharides (HPLC); format: biochemical, Caldicellulosiruptor saccharolyticus ATCC43494
# Method: (§2) Reaction products formed from D-glucose, D-galactose, and D-mannose by the action of the cellobiose 2-epimerase of the present invention were investigated. D-Glucose, D-galactose, or D-mannose was dissolved into 50 mM acetate buffer (pH 6.0) to give a final concentration of 20% (w/v) to make into a substrate solution. To 0.1 ml of the substrate solution, 130 units/g-solid substrate for D-glucose and D-mannose (0.1 ml as the enzyme solution), or 500 units/g-solid substrate for D-galactose (0.1 ml as the enzyme solution), of the purified preparation of the recombinant cellobiose 2-epimerase, obtained by the method in Experiment 4-4, was admixed; and followed the enzyme reaction at 60° C. for 48 hours.
# After the completion of the reaction, reaction mixture was heated at 100° C. for 10 minutes to stop the reaction. Each reaction mixture was subjected to HPLC analysis for determining the product. HPLC analysis of the products in the reaction mixture was carried out under the following conditions for separating monosaccharides.
# [4] = ingested in rat; cited from earlier work
# [5] = Substrate specificities of the cellobiose 2-epimerase (summary Table 6); format: biochemical; settings: listed as Caldicellulosiruptor saccharolyticus ATCC43494
# Method: as §2, §1
# The physicochemical properties and substrate specificities of the cellobiose 2-epimerase from Caldicellulosiruptor saccharolyticus ATCC43494, obtained from above experiments, were shown in Table 6 together with those of conventional cellobiose 2-epimerases from Ruminococcus albus (excerpted from Non-Patent Document 3) and Eubacterium cellosolvens (excerpted from Non-Patent Document 4).
# [6] = Lactose 2-epimerase activity of enzyme preparations; format: biochemical; settings: purified enzyme
# Method: Through the specification of the present invention, the activity of the cellobiose 2-epimerase was determined as a lactose 2-epimerase activity, which catalyzes epimerization of lactose to form epilactose, using lactose as the substrate obtainable in highly purified form at low cost. The lactose 2-epimerase activity was measured as follows. To 1,000 μl of substrate solution, which contains lactose to give a final concentration of 35.1 mM and acetate buffer (pH 6.0) to give a final concentration of 20 mM of the reaction solution, 200 μl of a enzyme solution was added to give a 1,200 μl of the reaction solution, followed by reaction at 50° C. for 20 minutes. The reaction was stopped by heating for 10 minutes in a boiling water bath. Then reaction mixture was subjected to HPLC chromatography to determine the amount of epilactose produced by the reaction. The HPLC chromatography was conducted at the following conditions; […]
# Then, each seed culture broth was inoculated into 10 L of the same medium eight each in eight 11-L pressure steel bottles and cultured. […] The epimerase activity of the crude enzyme was determined to be 0.009 Unit/ml.
# The enzyme preparation purified by the above process contained 0.9 mg protein, and its activity yield was 3.4% from the crude enzyme. […] The amount of protein was measured by Lowry method using bovine serum albumin as standard.
# [7] = Optimum temperature and optimum pH of epimerase activity; format: biochemical; settings: for Optimum temperature: reacted at pH 6.0 for 20 minutes
# Method: Through the specification of the present invention, the activity of the cellobiose 2-epimerase was determined as a lactose 2-epimerase activity, which catalyzes epimerization of lactose to form epilactose, using lactose as the substrate obtainable in highly purified form at low cost. The lactose 2-epimerase activity was measured as follows. To 1,000 μl of substrate solution, which contains lactose to give a final concentration of 35.1 mM and acetate buffer (pH 6.0) to give a final concentration of 20 mM of the reaction solution, 200 μl of a enzyme solution was added to give a 1,200 μl of the reaction solution, followed by reaction at 50° C. for 20 minutes. The reaction was stopped by heating for 10 minutes in a boiling water bath. Then reaction mixture was subjected to HPLC chromatography to determine the amount of epilactose produced by the reaction. The HPLC chromatography was conducted at the following conditions;
# Using the purified cellobiose 2-epimerase preparation obtained by the method of Experiment 2, effects of temperature and pH on the epimerase activity were investigated according to the method of assaying the activity. The results were in FIG. 3 (optimum temperature) and FIG. 4 (optimum pH). The optimum temperature of the enzyme is 80° C. when reacted at pH 6.0 for 20 minutes. The optimum pH of the enzyme is 7.8 when reacted at 50° C. for 20 minutes.
# [8] = 500 units/g-substrate, pH 6.0, 60° C., 48 hours
# [9] = 130 units/g-substrate, pH 6.0, 60° C., 48 hours
molecule,measurement,setting,value
[Cl][Al]([Cl])[Cl] [AlCl3],Inhibition of the epimerase activity by metal ion,cellobiose 2-epimerase,inhibited
same,Relative activity (%),"cellobiose 2-epimerase; metal salt 1 mM, None = 100",45%
[Ba+2].[Cl-].[Cl-] [BaCl2],Relative activity (%),"cellobiose 2-epimerase; metal salt 1 mM, None = 100",108%
[Ca+2].[Cl-].[Cl-] [CaCl2],Relative activity (%),"cellobiose 2-epimerase; metal salt 1 mM, None = 100",107%
[Cl-].[Cl-].[Co+2] [CoCl2],Relative activity (%),cellobiose 2-epimerase,101%
[Cl][Cu][Cl] [CuCl2],Inhibition of the epimerase activity by metal ion,cellobiose 2-epimerase,almost completely inhibited
same,Relative activity (%),"cellobiose 2-epimerase; metal salt 1 mM, None = 100",1%
O=C[C@H](O)[C@@H](O)[C@@H](O)[C@H](O)CO [D-Galactose],Content of isomerized saccharide in the reaction mixture (%): D-Tagatose,[1]; 500 units/g-substrate,9.2%
same,Content of isomerized saccharide in the reaction mixture (%): D-Talose,[1]; 500 units/g-substrate,11.0%
same,Action,[2],±
same,Action of the enzyme on the saccharide,[2],slightly acted on
same,Action of the enzyme compared with D-glucose and D-mannose,[3],relatively weak
same,"Content (%, w/w) of product D-Tagatose",[3]; [8],"8.4 %, w/w"
same,"Content (%, w/w) of product D-Talose",[3]; [8],"10.3 %, w/w"
O=C[C@H](O)[C@@H](O)[C@H](O)[C@H](O)CO [D-Glucose],Content of isomerized saccharide in the reaction mixture (%): D-Fructose,[1]; 130 units/g-substrate,5.0%
same,Content of isomerized saccharide in the reaction mixture (%): D-Mannose,[1]; 130 units/g-substrate,20.9%
same,Content of isomerized saccharide in the reaction mixture (%): D-Fructose,[1]; 500 units/g-substrate,9.2%
same,Content of isomerized saccharide in the reaction mixture (%): D-Mannose,[1]; 500 units/g-substrate,23.3%
same,Action,[2],+
same,Action of the enzyme on the saccharide,[2],acted on
same,"Content (%, w/w) of product D-Fructose",[3]; [9],"3.8 %, w/w"
same,"Content (%, w/w) of product D-Mannose",[3]; [9],"20.6 %, w/w"
O=C[C@@H](O)[C@@H](O)[C@H](O)[C@H](O)CO [D-Mannose],Content of isomerized saccharide in the reaction mixture (%): D-Fructose,[1]; 130 units/g-substrate,6.6%
same,Content of isomerized saccharide in the reaction mixture (%): D-Glucose,[1]; 130 units/g-substrate,45.8%
same,Action,[2],+
same,Action of the enzyme on the saccharide,[2],acted on
same,"Content (%, w/w) of product D-Fructose",[3]; [9],"5.1 %, w/w"
same,"Content (%, w/w) of product D-Glucose",[3]; [9],"41.8 %, w/w"
O=C(O)CN(CCN(CC(=O)O)CC(=O)O)CC(=O)O [EDTA],Relative activity (%),"cellobiose 2-epimerase; metal salt 1 mM, None = 100",99%
[Cl][Fe][Cl] [FeCl2],Relative activity (%),"cellobiose 2-epimerase; metal salt 1 mM, None = 100",35%
[Cl][Fe]([Cl])[Cl] [FeCl3],Relative activity (%),"cellobiose 2-epimerase; metal salt 1 mM, None = 100",33%
[Cl][Hg][Cl] [HgCl2],Inhibition of the epimerase activity by metal ion,cellobiose 2-epimerase,almost completely inhibited
same,Relative activity (%),"cellobiose 2-epimerase; metal salt 1 mM, None = 100",1%
[Cl-].[Cl-].[Mg+2] [MgCl2],Relative activity (%),"cellobiose 2-epimerase; metal salt 1 mM, None = 100",106%
[Cl][Mn][Cl] [MnCl2],Relative activity (%),"cellobiose 2-epimerase; metal salt 1 mM, None = 100",104%
[Cl][Ni][Cl] [NiCl2],Relative activity (%),"cellobiose 2-epimerase; metal salt 1 mM, None = 100",103%
[Cl][Pb][Cl] [PbCl2],Inhibition of the epimerase activity by metal ion,cellobiose 2-epimerase,inhibited
same,Relative activity (%),"cellobiose 2-epimerase; metal salt 1 mM, None = 100",36%
[Cl-].[Cl-].[Sr+2] [SrCl2],Relative activity (%),"cellobiose 2-epimerase; metal salt 1 mM, None = 100",104%
NC(CO)(CO)CO [Tris],Relative activity (%),"cellobiose 2-epimerase; metal salt 1 mM, None = 100",93%
[Cl-].[Cl-].[Zn+2] [ZnCl2],Inhibition of the epimerase activity by metal ion,cellobiose 2-epimerase,almost completely inhibited
same,Relative activity (%),"cellobiose 2-epimerase; metal salt 1 mM, None = 100",1%
OC[C@H]1O[C@@H](O[C@H]2[C@H](O)[C@H](O)C(O)O[C@@H]2CO)[C@H](O)[C@@H](O)[C@H]1O (stereo partly drawn) [epilactose],Amount of short-chain fatty acid in the intestine,[4],increasing the amount of short-chain fatty acid in the intestine
same,Calcium absorption in the small intestine,[4],promoting calcium absorption in the small intestine
same,Plasma cholesterol level,[4],lowering the plasma cholesterol level
"cellobiose 2-epimerase of the present invention: thermostable cellobiose 2-epimerase of Caldicellusiruptor saccharolyticus ATCC43494, amino acid sequence of SEQ ID NO:10 with 390 residues (protein, listed as Caldicellulosiruptor saccharolyticus) MDITRFKEDLKAHLEEKIIPFWQSLKDDEFGGYYGYMDFNLNIDRKAQKGCILNSRILWFFSACYNVLKSEKCKEMAFHAFEFLKNKFWDKEYEGLFWSVSHKGVPVDVTKHVYVQAFGIYGLSEYYEASGDEEALHMAKRLFEILETKCKRENGYTEQFERNWQEKENRFLSENGVIASKTMNTHLHVLESYTNLYRLLKLDDVYEALEWIVRLFVDKIYKKGTGHFKVFCDDNWNELIKAVSYGHDIEASWLLDQAAKYLKDEKLKEEVEKLALEVAQITLKEAFDGQSLINEMIEDRIDRSKIWWVEAETVVGFFNAYQKTKEEKYLDAAIKTWEFIKEHLVDRRKNSEWLWKVNEDLEAVNMPIVEQWKCPYHNGRMCLEIIKRVD",Substrate specificity: Cellobiose,[5]; substrate Cellobiose,epicellobiose
same,Substrate specificity: D-Galactose,[5]; substrate D-Galactose,Forming D-talose
same,Substrate specificity: D-Glucose,[5]; substrate D-Glucose,Forming D-mannose
same,Substrate specificity: D-Mannose,[5]; substrate D-Mannose,Forming D-glucose
same,Substrate specificity: Lactose,[5]; substrate Lactose,Forming epilactose
same,Substrate specificity: Maltose,[5]; substrate Maltose,Forming epimaltose
same,Specific activity,[6],26.9 unit/mg-protein
same,Optimum pH,[7]; reacted at 50° C. for 20 minutes,7.8
same,Optimum temperature,[7],80 °C
same,Optimum temperature,[7]; listed as Caldicellulosiruptor saccharolyticus ATCC43494,80 °C
same,Optimum temperature,[7]; listed as purified cellobiose 2-epimerase preparation,80 °C
same,Inhibition by metal ions,"cellobiose 2-epimerase; ions that inhibit the enzyme, listed as Caldicellulosiruptor saccharolyticus ATCC43494","Al^3+, Fe^2+, Fe^3+,; also recorded: Pb^2+, Cu^2+, Zn^2+,; also recorded: Hg^2+"
